Patent US20200397796A1, “METHODS OF TREATMENT OF CANCER COMPRISING CHK1 INHIBITORS” (SIERRA ONCOLOGY, INC., priority 2018, published 2020)

Legend:
[1] = system: Renca (renal cancer); assay: In vivo efficacy, Renca syngeneic model; design: species or system mouse; settings: data not shown
Method: A program of in vivo efficacy studies was performed to assess the activity of SRA737 in combination with genotoxic chemotherapy and targeted agents, and as monotherapy.
One of these models also carried a MYCN amplification. A fourth HGSOC PDX model with partial resistance to PARPi was also sensitive to high dose SRA737 monotherapy.

[2] = Single dose PK, monkey; type: in vivo
Method: The PK of SRA737 have been determined in the mouse, rat, dog and monkey following oral and IV administration (Table 3). […] An acceptable terminal elimination t1/2 was also observed in each species. […] The plasma protein binding of SRA737 at 1 and 10 μM was examined in mouse, minipig, monkey and human plasma using ultracentrifugation and in dog plasma (10 μM) using rapid equilibrium dialysis.

[3] = Parallel artificial membrane permeability assay (PAMPA); type: in vitro ADME
Method: The membrane permeability of SRA737 was assessed in the parallel artificial membrane permeability assay (PAMPA) and Caco-2 assays. Permeability in the PAMPA assay was classified as low.

[4] = system: cryopreserved hepatocytes; assay: Rank order of stability in cryopreserved hepatocytes across species; type: in vitro ADME, human, mouse, rat, dog, minipig and monkey; settings: 10 μM, up to 4 hours
Method: The formation of SRA737-related metabolites was determined in cryopreserved hepatocytes from human, mouse, rat, dog, minipig and monkey samples after incubation with SRA737 at a nominal concentration of 10 μM for up to 4 hours. […] In the human hepatocyte preparation, approximately 67% of the parent remained after 4 hours of incubation compared to 75% and 7% in the rat and minipig preparations, respectively. Eight human SRA737 metabolites were observed. All SRA737 metabolites formed by human hepatocytes were also formed by monkey hepatocytes. Six metabolites were present at equal or greater abundance in the monkey.

[5] = target: CYP 2A6 (Homo sapiens, UniProt P11509); assay: CYP inhibition, 2A6; type: in vitro ADME; settings: highest concentration investigated
CYP 2A6, sequence (P11509 whole entry): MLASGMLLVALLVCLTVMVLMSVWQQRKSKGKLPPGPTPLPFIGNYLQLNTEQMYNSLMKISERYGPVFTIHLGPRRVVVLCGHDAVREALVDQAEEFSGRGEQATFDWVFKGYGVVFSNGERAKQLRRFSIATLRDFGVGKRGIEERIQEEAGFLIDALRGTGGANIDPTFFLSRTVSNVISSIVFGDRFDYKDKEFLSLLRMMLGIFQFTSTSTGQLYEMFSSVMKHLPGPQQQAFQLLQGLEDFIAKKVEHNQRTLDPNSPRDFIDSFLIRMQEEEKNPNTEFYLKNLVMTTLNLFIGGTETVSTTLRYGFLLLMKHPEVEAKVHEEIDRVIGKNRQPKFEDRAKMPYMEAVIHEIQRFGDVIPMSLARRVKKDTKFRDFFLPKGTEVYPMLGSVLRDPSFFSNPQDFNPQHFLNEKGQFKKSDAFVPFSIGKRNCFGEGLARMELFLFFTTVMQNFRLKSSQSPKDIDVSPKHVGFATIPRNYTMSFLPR

[6] = target: CYP 2C19 (Homo sapiens, UniProt P33261); assay: CYP inhibition, 2C19; type: in vitro ADME; settings: highest concentration investigated
CYP 2C19, sequence (P33261 whole entry): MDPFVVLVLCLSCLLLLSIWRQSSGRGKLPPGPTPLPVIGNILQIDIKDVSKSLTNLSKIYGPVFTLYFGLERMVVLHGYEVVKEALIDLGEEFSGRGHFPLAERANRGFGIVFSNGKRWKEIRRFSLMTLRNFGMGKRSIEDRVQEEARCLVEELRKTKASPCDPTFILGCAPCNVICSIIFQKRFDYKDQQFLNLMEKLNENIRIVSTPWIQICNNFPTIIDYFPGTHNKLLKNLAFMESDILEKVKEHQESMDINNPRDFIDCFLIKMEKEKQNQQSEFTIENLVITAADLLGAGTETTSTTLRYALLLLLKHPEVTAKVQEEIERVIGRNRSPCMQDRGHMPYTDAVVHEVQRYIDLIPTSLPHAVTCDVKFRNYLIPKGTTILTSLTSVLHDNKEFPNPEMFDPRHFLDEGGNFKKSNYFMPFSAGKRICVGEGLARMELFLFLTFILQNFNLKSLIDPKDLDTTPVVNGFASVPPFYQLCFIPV

[7] = Phase 1 clinical trial, SRA737 monotherapy dose escalation; type: in vivo, human; settings: for AUC(0-t): AUC0-24
Method: A Phase 1 clinical trial was conducted in ‘all comers,’ i.e. no genetic selection was performed, to establish safety, tolerability and pharmacokinetics (“Dose Escalation Phase”). Cohorts consisting initially of a single subject received escalating doses of SRA737, starting in Cohort 1 with 20 mg/day administered orally on a continuous daily dosing schedule in 28 day cycles. the dose was escalated until the maximum tolerated dose (MTD) was identified.
In the Dose Escalation Phase, 18 subjects received SRA737 in 9 dose level cohorts, from 20 to 1300 mg QD; median treatment duration 62.5 days (range 1 to 226). […] Two of 3 subjects experienced DLTs at the 1300 mg once daily dose, each being an inability to receive 75% of the planned SRA737 dose due to GI intolerability, with the individual GI effects being low grade. […] A cohort receiving 500 mg twice daily was added to determine if a twice daily dosing schedule can improve GI tolerability, given the half-life of SRA737 is approximately 10 hours. One of 6 subjects experienced DLTs in the 500 mg twice daily cohort; this was an inability to receive 75% of the planned SRA737 dose due to grade 4 thrombocytopenia with grade 3 neutropenia and anemia.
Cmin was calculated at 1000 mg QD (411 ng/mL) and exceeded that determined in preclinical models to be effective. Doses≥300 mg QD also exceeded the preclinical models to be effective.

[8] = in vivo, Monkey IV 1 mg/kg single dose
[9] = in vivo, Monkey oral 2 mg/kg single dose
[10] = in vivo, Monkey oral 10 mg/kg single dose

For `N#Cc1cnc(Nc2cc(NCC3CNCCO3)c(C(F)(F)F)cn2)cn1` (stereo not shown) [SRA737, 5-[[4-[[morpholin-2-yl]methylamino]-5-(trifluoromethyl)-2-pyridyl]amino]pyrazine-2-carbonitrile], the single agent efficacy [1] was “single agent efficacy”, the Foral ([2]; Monkey oral 2 mg/kg single dose) was 90% and the Foral ([2]; Monkey oral 10 mg/kg single dose) was 104%. The AUC(0-t) [2, 8] was 1520 ng·h/mL, the half-life [2, 8] was 5.3 h and the AUC(0-t) [2, 9] was 2730 ng·h/mL. For the same molecule, the Cmax [2, 9] was 500 ng/mL, the Tmax [2, 9] was 1 to 2 h and the half-life [2, 9] was 5 h. For the same molecule, the AUC(0-t) [2, 10] was 15800 ng·h/mL, the Cmax [2, 10] was 2640 ng/mL and the Tmax [2, 10] was 2 to 4 h. For the same molecule, the half-life [2, 10] was 5.1 h, the bioavailability ([2]; in vivo, monkey, oral 2 and 10 mg/kg, read-out: absolute oral bioavailability (% F)) was 90 to 104% and the “permeability in the PAMPA assay” value [3] was “low”. For the same molecule, the “rank order of stability from most stable to least stable” value [4] was “rat≈mouse>monkey≈human>>dog>>minipig”, the IC50 [5] was 10 to 50 µM and the IC50 [6] was 10 to 50 µM. For the same molecule, the “maximum tolerated dose (MTD)” value ([7]; BID) was 500 mg, the “maximum tolerated dose (MTD)” value ([7]; QD, continuous daily oral dosing) was 1000 mg and the “dose-limiting toxicities (DLTs)” value ([7]; human, in vivo) was “without any dose-limiting toxicities”. For the same molecule, the “doses that exceeded the level determined in preclinical models to be effective” value ([7]; human, in vivo) was at least 300 mg, the Cmax ([7]; human, in vivo, 20 mg) was 29.0 ng/mL and the Cmax ([7]; human, in vivo, 20 mg, Cmax) was 43 ng/mL. The half-life ([7]; human, in vivo, 20 mg, T1/2) was 17.6 h, the AUC0-24 ([7]; human, in vivo, 40 mg) was 1,006 ng · h/mL and the Cmax ([7]; human, in vivo, 40 mg) was 75.9 ng/mL. For the same molecule, the T1/2 ([7]; human, in vivo, 40 mg) was 16.8 h, the Tmax ([7]; human, in vivo, 40 mg) was 2.0 h and the AUC(0-t) ([7]; human, in vivo, 40 mg) was 809 ng·h/mL. It also gave a Cmax ([7]; human, in vivo, 40 mg, Cmax) of 95 ng/mL, a half-life ([7]; human, in vivo, 40 mg, T1/2) of 9.85 h and a Tmax ([7]; human, in vivo, 40 mg, Tmax) of 1 h. The AUC0-24 ([7]; human, in vivo, 80 mg) was 1,064 ng · h/mL, the Cmax ([7]; human, in vivo, 80 mg) was 81.4 ng/mL and the T1/2 ([7]; human, in vivo, 80 mg) was 15.6 h. It also gave a Tmax ([7]; human, in vivo, 80 mg) of 2.0 h, an AUC(0-t) ([7]; human, in vivo, 80 mg) of 691 ng·h/mL and a Cmax ([7]; human, in vivo, 80 mg, Cmax) of 68.9 ng/mL. For the same molecule, the half-life ([7]; human, in vivo, 80 mg, T1/2) was 9.27 h, the Tmax ([7]; human, in vivo, 80 mg, Tmax) was 4 h and the AUC0-24 ([7]; human, in vivo, 160 mg) was 2,515 ng · h/mL. For the same molecule, the Cmax ([7]; human, in vivo, 160 mg) was 217 ng/mL, the T1/2 ([7]; human, in vivo, 160 mg) was 19.8 h and the Tmax ([7]; human, in vivo, 160 mg) was 2.0 h. The AUC(0-t) ([7]; human, in vivo, 160 mg) was 1620 ng·h/mL, the Cmax ([7]; human, in vivo, 160 mg, Cmax) was 178 ng/mL and the half-life ([7]; human, in vivo, 160 mg, T1/2) was 13.8 h. For the same molecule, the Tmax ([7]; human, in vivo, 160 mg, Tmax) was 4 h, the AUC0-24 ([7]; human, in vivo, 300 mg) was 2,362 ng · h/mL and the T1/2 ([7]; human, in vivo, 300 mg) was 15.4 h. It also gave a Tmax ([7]; human, in vivo, 300 mg) of 6.0 h, an AUC(0-t) ([7]; human, in vivo, 300 mg) of 3150 ng·h/mL and a half-life ([7]; human, in vivo, 300 mg, T1/2) of 8.59 h. For the same molecule, the Tmax ([7]; human, in vivo, 300 mg, Tmax) was 4 h, the AUC0-24 ([7]; human, in vivo, 600 mg) was 12,850 ng · h/mL and the Cmax ([7]; human, in vivo, 600 mg) was 1,381 ng/mL. For the same molecule, the T1/2 ([7]; human, in vivo, 600 mg) was 10.4 h, the Tmax ([7]; human, in vivo, 600 mg) was 2.9 h and the AUC(0-t) ([7]; human, in vivo, 600 mg) was 8870 ng·h/mL. It also gave a Cmax ([7]; human, in vivo, 600 mg, Cmax) of 998 ng/mL, a half-life ([7]; human, in vivo, 600 mg, T1/2) of 12.9 h and a Tmax ([7]; human, in vivo, 600 mg, Tmax) of 1.8 h. For the same molecule, the AUC0-24 ([7]; human, in vivo, 800 mg) was 25,423 ng · h/mL, the Cmax ([7]; human, in vivo, 800 mg) was 2,573 ng/mL and the T1/2 ([7]; human, in vivo, 800 mg) was 10.0 h. It also gave a Tmax ([7]; human, in vivo, 800 mg) of 2.5 h, an AUC(0-t) ([7]; human, in vivo, 800 mg) of 18900 ng·h/mL and a Cmax ([7]; human, in vivo, 800 mg, Cmax) of 1980 ng/mL. For the same molecule, the half-life ([7]; human, in vivo, 800 mg, T1/2) was 10.3 h, the Tmax ([7]; human, in vivo, 800 mg, Tmax) was 3.3 h and the T1/2 ([7]; human, in vivo, 1000 mg) was 9.38 h. It also gave a Tmax ([7]; human, in vivo, 1000 mg) of 3.1 h, an AUC(0-t) ([7]; human, in vivo, 1000 mg) of 26800 ng·h/mL and a Cmax ([7]; human, in vivo, 1000 mg, Cmax) of 2390 ng/mL. For the same molecule, the half-life ([7]; human, in vivo, 1000 mg, T1/2) was 11 h, the Tmax ([7]; human, in vivo, 1000 mg, Tmax) was 3.3 h and the AUC(0-t) ([7]; human, in vivo, 1300 mg) was 29800 ng·h/mL. The Cmax ([7]; human, in vivo, 1300 mg, Cmax) was 3230 ng/mL, the half-life ([7]; human, in vivo, 1300 mg, T1/2) was 11.8 h and the Tmax ([7]; human, in vivo, 1300 mg, Tmax) was 2.7 h. For the same molecule, the half-life ([7]; human, in vivo, half-life) was about 10 h.
